One test relates to A. baumannii. Briefly: MIC, resazurin microtitre method. The settings on record: Acinetobacter baumannii, 24 h, 35 °C, read-out: Minimal inhibitory concentration. It counts as cell-based. The protocol: (§1) To ensure sterility, the extracts and DMSO underwent ultrafiltration before their use in the study. The minimum inhibitory concentration (MIC) of both aqueous and methanolic extracts was determined using a modified version of the resazurin method developed by Sarker and Nahar. A resazurin solution was prepared by dissolving 270 mg of resazurin in 40 mL of sterilized deionized water. In 96-well microtiter plates, the first row received 100 μL of samples in DMSO (1:10 v/v), while all other wells received 50 μL of Luria–Bertani broth or normal sterile solution. Serial dilutions of the extracts were performed in descending concentrations. To each well, 10 μL of the resazurin indicator solution was added. […] The plates were sealed with parafilm to prevent dehydration. A column of the plate contained the broad-spectrum antibiotic tetracycline, which was previously suspended in DMSO and served as a positive control. The negative control consisted of Luria–Bertani broth containing resazurin and bacteria without any samples. The plates were incubated at 37 °C (35 °C for A. baumannii) for 24 h. Visual observation was used to assess any color changes. If the solution changed from dark purple to pink or colorless, it was recorded as a positive result. The MIC value was determined as the lowest concentration of extracts that could prevent the color change from dark purple to pink.

In another test the test system is E. coli. Briefly: MIC, resazurin microtitre method. It counts as cell-based. The settings on record: Escherichia coli, 24 h, read-out: Minimal inhibitory concentration. The protocol: as §1
In another test the test system is L. monocytogenes. In words: MIC, resazurin microtitre method. It counts as cell-based. The settings on record: Listeria monocytogenes, 24 h, 37 °C, read-out: Minimal inhibitory concentration. The protocol: as §1
(In general: The colour change of resazurin is a common sign of viable cells or microbes.)

The next test relates to P. aeruginosa. In words: MIC, resazurin microtitre method. The format is cell-based. The settings on record: Pseudomonas aeruginosa, 24 h, 37 °C, read-out: Minimal inhibitory concentration. The procedure: as §1
The next test relates to S. aureus. Briefly: MIC, resazurin microtitre method. The format is cell-based. The settings on record: Staphylococcus aureus, 24 h, read-out: Minimal inhibitory concentration. The protocol: as §1
The nature of another test: DPPH assay. The settings on record: 45 min, 515 nm. The protocol: The antiradical activity of the stable 1,1-diphenyl-2-picrylhydrazyl radical (DPPH) was measured using the protocol of Xiang and coworkers with slight modifications. […] To produce final concentrations ranging from 31.25 to 1000 µg/mL, aliquots of extracts were dissolved in methanol. In a straight-sided cuvette, an aliquot of methanol solution containing different concentrations of either methanolic or aqueous extracts was added to a DPPH solution (60 μM) to a final volume of 1 mL. As a control, an identical quantity of DPPH solution was applied to the cuvette, and methanol alone was used as the blank. After 45 min, the absorbance at 515 nm was measured with a Multiskan GO spectrophotometer (Thermo Fisher Scientific, Vantaa, Finland).
The standard was 6-hydroxy 2,5,7,8-tetramethylchroman-2-carboxylic acid (Trolox, Sigma-Aldrich, Milan, Italy).
For orientation: DPPH is a stable violet radical that fades when it is reduced.

Values after ≈ are worked out from the molar mass of the structure shown.

Take `CN(C)[C@@H]1C(O)=C(C(N)=O)C(=O)[C@@]2(O)C(O)=C3C(=O)c4c(O)cccc4[C@@](C)(O)[C@H]3C[C@@H]12` [Tetracycline]: the MIC with A. baumannii was found to be 25 ± 2 µg/mL (≈ 56.3 µM); in the test on E. coli it was 25 ± 2 µg/mL (≈ 56.3 µM); in the test with L. monocytogenes, 32 ± 1 µg/mL (≈ 72 µM); in the test with P. aeruginosa, 28 ± 1 µg/mL (≈ 63 µM); with S. aureus, 28 ± 1 µg/mL (≈ 63 µM).

Take `Cc1c(C)c2c(c(C)c1O)CCC(C)(C(=O)O)O2` (stereo not drawn) [Trolox, 6-hydroxy 2,5,7,8-tetramethylchroman-2-carboxylic acid]: the “DPPH (IC50)” value in the test “DPPH assay” is 3.65 ± 0.01 µg/mL.

The record behind these values is article PMC10648406, “Pulicaria incisa (Lam.) DC. as a Potential Source of Antioxidant, Antibacterial, and Anti-Enzymatic Bioactive Molecules: Phytochemical Constituents, In Vitro and In Silico Pharmacological Analysis” (Molecules, 2023).
